Structures can show the parent of a compound that is named as a salt. Where two headings read alike, the source gives them in different places.
Experiments:
HT-29 cells = experiment: Hoechst/propidium iodide cell death assay in HT-29; type: cell-based, human; conditions: for cytotoxicity at 20 µM: Homo sapiens
Excerpt: (§1) A high-content imaging system (PerkinElmer; Operetta CLS), was used to quantify cell death and apoptosis by calculating the number of propidium iodide-positive cells relative to Hoechst-positive cells, and the number of Annexin V-positive cells relative to Hoechst-positive cells, respectively.

NIH-3T3 cells = experiment: Hoechst/propidium iodide cell death assay in NIH-3T3; type: cell-based; conditions: for cytotoxicity at 20 µM: Mus musculus, NIH3T3, 24 h
Excerpt: as §1

[1] = target: T1, 14-3-3ζ:BAD-112-136F interactions (Homo sapiens, UniProt P63104); experiment: BRET sensor screen for disruption of 14-3-3ζ-Rluc8:BAD-112-136F-mCitrine in living NIH-3T3 cells; type: cell-based, murine; design: inhibition: dose or concentration left out as unconfirmed; BRET reduction on NIH-3T3: unit not given here; conditions: for inhibition / inhibition at 20 µM: NIH3T3, 3 h
T1 construct: expressed in transfected cells; host or cells: NIH-3T3 fibroblasts, bi-directional pBI-CMV1 plasmid
T1 sequence (P63104 1-245): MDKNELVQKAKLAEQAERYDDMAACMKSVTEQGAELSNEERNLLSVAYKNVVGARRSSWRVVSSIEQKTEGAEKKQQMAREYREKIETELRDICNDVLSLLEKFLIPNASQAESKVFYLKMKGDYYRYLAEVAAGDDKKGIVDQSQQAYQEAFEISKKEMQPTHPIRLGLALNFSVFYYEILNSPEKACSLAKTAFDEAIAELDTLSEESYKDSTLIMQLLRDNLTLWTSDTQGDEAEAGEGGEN
Procedure: The Z’-score, which evaluates the robustness of an HTS assay readout, was calculated according to standard protocols. For the HTS, 384-well plates were coated with 100 μg/mL poly-L-ornithine (Sigma, Missouri, United States; #P3655) overnight at 37 °C, followed by rinsing with sterilized water. NIH-3T3 cells were transfected with the BRET sensor two days prior to experimentation, followed by replating onto the pre-coated 384-well plates at a density of 20,000 cells/well. After 24 h of incubation at 37 °C, growth media was replaced by Krebs buffer (pH 7.4).

[2] = HT-29, 24 h, 20 µM, 24 h, read-out: Percentage of cell death % 24h HT-29
[3] = HT-29, 48 h, HT-29, 48h, 20 μM, read-out: Percentage of cell death % 48h, HT-29
[4] = 20 µM, 24 h, read-out: Percentage of cell death % 24h NIH3t3
[5] = NIH-3T3 cells, hits from the primary screen, read-out: BRET reduction on NIH-3T3
[6] = NIH-3T3 expressing BRET sensor, 20 µM, 3 h, read-out: BRET reduction on NIH-3T3

Row | Structure (SMILES) | cytotoxicity at 20 µM (HT-29 cells; [2]) [%] | cytotoxicity at 20 µM (HT-29 cells; [3]) [%] | cytotoxicity at 20 µM (NIH-3T3 cells; [4]) [%] | Percentage of cell death % 48h, NIH3T3 (NIH-3T3 cells) [%] | inhibition [1, 5] [%] | inhibition at 20 µM [1, 6] [%] | other results
1 | CC(C)=CCC/C(C)=C/CC/C(C)=C/CSc1ccccc1C(=O)O [Salirasib] | 0.693 | 1.28 | 3.71 | 1.2519 | 45.5 | 45.5 | 
2 | Clc1ccc(C(Cn2ccnc2)OCc2csc3c(Cl)cccc23)c(Cl)c1 (stereo not shown) [Sertaconazole nitrate] | 2.46 | 4.64 | 4.15 | 10.0161 | 46.8 | 46.8 | 
3 | C=CC[C@@H]1/C=C(\C)C[C@H](C)C[C@H](OC)[C@H]2O[C@@](O)(C(=O)C(=O)N3CCCC[C@H]3C(=O)O[C@H](/C(C)=C/[C@@H]3CC[C@@H](O)[C@H](OC)C3)[C@H](C)[C@@H](O)CC1=O)[C@H](C)C[C@@H]2OC [Tacrolimus (FK506), Tacrolimus] | 0.958 | 2.46 | 0.808 | 0.523 | 26 | 26 | 
4 | CC/C(=C(\c1ccccc1)c1ccc(OCCN(C)C)cc1)c1ccccc1 [Tamoxifen Citrate] | 5.86 | 63.3 | 76.5 | 76.3192 | 51.8 | 51.8 | 
5 | CC/C(=C(\c1ccccc1)c1ccc(OCCN(C)C)cc1)c1ccccc1 [Tamoxifen] |  |  |  | 78.8324 |  |  | Percentage of cell death % 24h HT-29 (HT-29 cells; 20 µM, 24 h): 3.365%; Percentage of cell death % 48h, HT-29 (HT-29 cells; HT-29, 48h, 20 μM): 61.8661%; %Cell death HT-29 (HT-29 cells; HT-29, time not given): 63.3%; Percentage of cell death % 24h NIH3t3 (NIH-3T3 cells; 20 µM, 24 h): 81.9489%; BRET reduction on NIH-3T3 ([1]; NIH-3T3 cells, hits from the primary screen): 54.2923; BRET reduction on NIH-3T3 ([1]; NIH-3T3 expressing BRET sensor, 20 µM, 3 h): 54.2923
6 | CSc1ccc2c(c1)N(CCC1CCCCN1C)c1ccccc1S2 (stereo not shown) [Thioridazine HCl] | 1.72 | 16.7 | 83.3 | 84.4863 | 27.4 | 27.4 | 
7 | CCCCCCCCCCCCCCCC[N+](C)(C)CCN(Cc1ccc(OC)cc1)c1ncccn1 [Thonzonium Bromide] | 94.9 | 94.7 | 86.2 | 80.9399 | 38.3 | 38.3 | 
8 | Clc1ccc(C(Cn2ccnc2)OCc2ccsc2Cl)c(Cl)c1 (stereo not shown) [Tioconazole] | 2.22 | 5.98 | 7.78 | 3.795 |  | 27.3 | inhibition at 20 µM [1, 5]: 27.3%
9 | Cn1cncc1[C@@](N)(c1ccc(Cl)cc1)c1ccc2c(c1)c(-c1cccc(Cl)c1)cc(=O)n2C [Tipifarnib (Zarnestra), Tipifarnib] |  |  |  | 52.702 |  |  | cytotoxicity at 20 µM (HT-29 cells; HT-29, 24 h, read-out: Percentage of cell death % 24h HT-29, 20 µM, 24 h): 3.09%; cytotoxicity at 20 µM (HT-29 cells; HT-29, 48 h, read-out: Percentage of cell death % 48h, HT-29, HT-29, 48h, 20 μM): 12.9%; cytotoxicity at 20 µM (NIH-3T3 cells; read-out: Percentage of cell death % 24h NIH3t3, 20 µM, 24 h): 65.9%; inhibition at 20 µM ([1]; read-out: BRET reduction on NIH-3T3, NIH-3T3 cells, hits from the primary screen): 43.9%; inhibition at 20 µM ([1]; read-out: BRET reduction on NIH-3T3, NIH-3T3 expressing BRET sensor, 20 µM, 3 h): 43.9%
10 | Cc1c(C)c2c(c(C)c1O)CCC(C)(COc1ccc(CC3SC(=O)NC3=O)cc1)O2 (stereo not shown) [Troglitazone] | 0.272 | 0.925 | 0.791 | 0.3187 | 30.9 | 30.9 | 
11 | COc1cc(C(=O)NS(=O)(=O)c2ccccc2C)ccc1Cc1cn(C)c2ccc(NC(=O)OC3CCCC3)cc12 [Zafirlukast] | 0.343 | 0.917 | 0.402 | 0.2485 | 30.4 | 30.4 | 
12 | O=C1Cc2cc(CCN3CCN(c4nsc5ccccc45)CC3)c(Cl)cc2N1 [Ziprasidone hydrochloride monohydrate] | 1.29 | 1.87 | 1.15 | 0.2764 | 25.5 | 25.5 | 

Reference: PMC12603070, “A high-throughput screening approach to discover potential colorectal cancer chemotherapeutics: repurposing drugs to identify novel disruptors of 14-3-3 proteins” (Cell Death & Disease, 2025)
